In US20220056019A1, “FARNESOID X RECEPTOR AGONISTS AND USES THEREOF” (Metacrine, Inc., priority 2018, published 2022) one finds EC50 data, which are given here for 18 molecules.

Broadly, the EC50 is the midpoint of the concentration-response curve.

A value given as a limit tells only on which side of the number the result lay.

The assay addresses T1, hFXR (Homo sapiens, UniProt Q96RI1).
T1 construct: expressed in transfected cells; host or cells: CV-1 cells
T1 sequence (Q96RI1 1-486): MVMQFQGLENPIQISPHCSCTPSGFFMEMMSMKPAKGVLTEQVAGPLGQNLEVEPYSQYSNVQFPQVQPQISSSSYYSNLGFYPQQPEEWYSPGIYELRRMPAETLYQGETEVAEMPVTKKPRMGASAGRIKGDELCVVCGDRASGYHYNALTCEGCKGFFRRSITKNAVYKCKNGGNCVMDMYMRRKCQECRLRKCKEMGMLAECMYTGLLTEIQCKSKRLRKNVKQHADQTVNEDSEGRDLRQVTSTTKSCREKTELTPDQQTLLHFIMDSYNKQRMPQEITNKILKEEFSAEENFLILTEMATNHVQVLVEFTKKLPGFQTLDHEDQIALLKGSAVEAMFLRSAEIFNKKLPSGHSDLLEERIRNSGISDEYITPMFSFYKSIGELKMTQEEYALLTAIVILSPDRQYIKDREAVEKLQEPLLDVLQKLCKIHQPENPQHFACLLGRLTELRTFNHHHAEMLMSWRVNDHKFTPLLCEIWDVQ
T1 sequence (P19793 1-462 partner): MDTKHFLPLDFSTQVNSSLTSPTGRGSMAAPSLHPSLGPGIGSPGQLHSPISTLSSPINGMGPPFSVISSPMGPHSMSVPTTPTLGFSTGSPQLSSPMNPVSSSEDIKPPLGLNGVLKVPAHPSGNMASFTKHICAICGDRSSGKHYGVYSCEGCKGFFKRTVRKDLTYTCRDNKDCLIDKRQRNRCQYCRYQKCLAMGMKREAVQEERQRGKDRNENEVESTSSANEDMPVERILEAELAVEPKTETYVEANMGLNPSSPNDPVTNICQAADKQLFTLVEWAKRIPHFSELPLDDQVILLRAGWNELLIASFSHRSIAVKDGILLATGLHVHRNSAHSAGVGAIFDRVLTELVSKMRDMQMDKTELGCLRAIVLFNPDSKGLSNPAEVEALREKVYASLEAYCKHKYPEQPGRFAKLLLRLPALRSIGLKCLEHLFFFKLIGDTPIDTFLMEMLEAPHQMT
Briefly: In Vitro FXR Assay (TK): TK-ECRE-luc reporter in transfected CV-1 cells. It counts as cell-based. To be noted: 18 hrs incubation, luminescence. Summed up:
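Transactivation is scored as luminescence in CV-1 cell lysates. The cells, co-transfected with hFXR/hRXR and a TK-ECRE-luc reporter, are exposed to DMSO-diluted compounds for 18 h.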
`COCCOC(=O)N[C@H]1CC[C@H](C(=O)N(CC23CCC(c4ccc(OC)c(C)c4)(CC2)CC3)c2cc(-c3cnn(C(C)C)c3)ccn2)CC1` [Compound 7.01, (trans)-2-Methoxyethyl (4-((4-(1-isopropyl-1H-pyrazol-4-yl)pyridin-2-yl)((4-(4-methoxy-3-methylphenyl)bicyclo[2.2.2]octan-1-yl)methyl)carbamoyl)cyclohexyl) carbamate] yielded an EC50 of no more than 50 nM.
The molecule `COc1ccc(C23CCC(CN(c4cc(-c5nnn(C(C)C)n5)ccn4)C(=O)[C@H]4CC[C@H](OC(=O)N5CC(O)C5)CC4)(CC2)CC3)cc1C` [Compound 26.16, 4-((4-(2-Isopropyl-2H-tetrazol-5-yl)pyridin-2-yl)((4-(4-methoxy-3-methylphenyl)bicyclo[2.2.2]octan-1-yl)methyl)carbamoyl)cyclohexyl trans-3-hydroxyazetidine-1-carboxylate] yielded an EC50 of no more than 50 nM.
Next, `COc1ncc([C@H]2CC[C@H](CN(c3cc(-c4coc(C5CC5)n4)ccn3)C(=O)[C@H]3CC[C@H](OC(=O)N4CC(N(C)C)C4)CC3)CC2)cc1Cl` [Compound 1.06, trans-4-((((trans)-4-(5-Chloro-6-methoxypyridin-3-yl)cyclohexyl)methyl)(4-(2-cyclopropyloxazol-4-yl)pyridin-2-yl)carbamoyl)cyclohexyl 3-(dimethylamino)azetidine-1-carboxylate]: no more than 50 nM; `COc1ccc([C@H]2CC[C@](F)(CN(c3cccc(-c4cnn(C(C)C)c4)c3)C(=O)[C@H]3CC[C@H](OC(=O)N4CC(O)C4)CC3)CC2)cc1C` [Compound 25.01, 4-((((trans)-1-Fluoro-4-(4-methoxy-3-methylphenyl)cyclohexyl)methyl)(3-(1-isopropyl-1H-pyrazol-4-yl)phenyl)carbamoyl)(trans-cyclohexyl) 3-hydroxyazetidine-1-carboxylate]: no more than 50 nM; `CCCNC(=O)O[C@H]1CC[C@H](C(=O)N(C[C@H]2CC[C@H](c3ccc(OC)c(C)c3)CC2)c2cccc(-c3cnn(C(C)C)c3)c2)CC1` [Compound 5.03, trans-4-((3-(1-Isopropyl-1H-pyrazol-4-yl)phenyl)(((trans)-4-(4-methoxy-3-methylphenyl)cyclohexyl)methyl)carbamoyl)cyclohexyl propylcarbamate]: no more than 50 nM.
The result for `COc1ccc(C23CCC(CN(c4cnnc(-c5cnn(C(C)C)c5)c4)C(=O)[C@H]4CC[C@H](OC(=O)N5CC(O)C5)CC4)(CC2)CC3)cc1C` [Compound 4.61, 4-((6-(1-Isopropyl-1H-pyrazol-4-yl)pyridazin-4-yl)((4-(4-methoxy-3-methylphenyl)bicyclo [2.2.2]octan-1-yl)methyl)carbamoyl)(trans-cyclohexyl) 3-hydroxyazetidine-1-carboxylate] reads 50 to 1000 nM.
Next, `COc1ccc([C@H]2CC[C@H](CN(c3cc(-c4cnn(C(C)C)c4)ccn3)C(=O)[C@H]3CC[C@H](OC(=O)NCC(C)(C)O)CC3)CC2)cc1C` [Compound 2.04, trans-4-((4-(1-Isopropyl-1H-pyrazol-4-yl)pyridin-2-yl) ((trans-4-(4-methoxy-3-methylphenyl)cyclohexyl)methyl)carbamoyl) cyclohexyl(2-hydroxy-2-methylpropyl)carbamate]: no more than 50 nM.
Take `COc1ccc([C@H]2CC[C@H](CN(c3cc(-c4coc(C(C)C)n4)ccn3)C(=O)[C@H]3CC[C@H](OC(=O)N4CC(O)C4)CC3)CC2)cc1C` [Compound 2.24, trans-4-((4-(2-Isopropyloxazol-4-yl)pyridin-2-yl)(((trans)-4-(4-methoxy-3-methylphenyl)cyclohexyl)methyl)carbamoyl) cyclohexyl 3-hydroxyazetidine-1-carboxylate]: the EC50 is no more than 50 nM.
Next, `COc1ccc(C23CCC(CN(C(=O)N4CCC(OC(=O)N5CC(O)C5)CC4)c4cc(-c5cnn(C(C)C)c5)ccn4)(CC2)CC3)cc1C` [Compound 27, 1-((4-(1-Isopropyl-1H-pyrazol-4-yl)pyridin-2-yl)((4-(4-methoxy-3-methylphenyl)bicyclo[2.2.2]octan-1-yl)methyl)carbamoyl)piperidin-4-yl 3-hydroxyazetidine-1-carboxylate]: no more than 50 nM; `COc1ccc([C@H]2CC[C@H](CN(c3cccc(-c4cnn(C(C)C)c4)c3)C(=O)[C@H]3CC[C@H](NC(=O)CC4CCOCC4)CC3)CC2)cc1C` [Compound 10.03, trans-N-(3-(1-Isopropyl-1H-pyrazol-4-yl)phenyl)-N-((trans-4-(4-methoxy-3-methylphenyl)cyclohexyl)methyl)-4-(2-(tetrahydro-2H-pyran-4-yl)acetamido)cyclohexanecarboxa-mide]: 50 to 1000 nM; `COc1ccc([C@H]2CC[C@H](CN(c3cc(-c4cnn(C(C)C)c4)ccn3)C(=O)[C@H]3CC[C@H](OC(=O)N4CC(CO)C4)CC3)CC2)cc1C` [Compound 2.03, trans-4-((4-(1-Isopropyl-1H-pyrazol-4-yl)pyridin-2-yl)(((trans)-4-(4-methoxy-3-methylphenyl)cyclohexyl)methyl)carbamoyl)cyclohexyl 3-(hydroxymethyl) azetidine-1-carboxylate]: no more than 50 nM.
Next, `COCCN(C)C(=O)O[C@H]1CC[C@H](C(=O)N(CC23CCC(c4ccc(OC)c(C)c4)(CC2)CC3)c2cc(-c3cnn(C(C)C)c3)ccn2)CC1` [Compound 4.56, 4-((4-(1-Isopropyl-1H-pyrazol-4-yl)pyridin-2-yl) ((4-(4-methoxy-3-methylphenyl)bicyclo [2.2.2]octan-1-yl)methyl)carbamoyl)cyclohexyl (2-methoxyethyl)(methyl) trans-carbamate]: no more than 50 nM.
The result for `COc1ccc([C@H]2CC[C@H](CN(c3cc(-c4cnn(C(C)C)c4)ccn3)C(=O)[C@H]3CC[C@H](OC(=O)NCCCF)CC3)CC2)cc1C` [Compound 2.29, trans-4-((4-(1-Isopropyl-1H-pyrazol-4-yl)pyridin-2-yl)(((trans)-4-(4-methoxy-3-methylphenyl)cyclohexyl)methyl)carbamoyl) cyclohexyl(3-fluoropropyl)carbamate] reads no more than 50 nM.
`COc1ccc([C@H]2CC[C@H](CN(c3cccc(-c4cnn(C(C)C)c4)c3)C(=O)[C@H]3CC[C@H](OC(=O)NC[C@H](F)CO)CC3)CC2)cc1C` [Compound 5.07, trans-4-((3-(1-Isopropyl-1H-pyrazol-4-yl)phenyl)(((trans)-4-(4-methoxy-3-methylphenyl)cyclohexyl)methyl)carbamoyl)cyclohexyl ((S)-2-fluoro-3-hydroxypropyl) carbamate] showed an EC50 of no more than 50 nM.
Molecule `COc1ccc([C@H]2CC[C@H](CN(c3cc(-n4cnc(C5CC5)n4)ccn3)C(=O)[C@H]3CC[C@H](OC(=O)N4CC(O)C4)CC3)CC2)cc1C` [Compound 2.39, trans-4-((4-(3-Cyclopropyl-1H-1,2,4-triazol-1-yl)pyridin-2-yl)((trans-4-(4-methoxy-3-methylphenyl)cyclohexyl)methyl)carbamoyl)cyclohexyl 3-hydroxyazetidine-1-carboxylate] had an EC50 of no more than 50 nM.
In the case of `CCOC(=O)N[C@H]1CC[C@H](C(=O)N(C[C@H]2CC[C@H](c3ccc(OC)c(C)c3)CC2)c2cccc(-c3cnn(C(C)C)c3)c2)CC1` [Compound 6.01, Ethyl (trans-4-((3-(1-isopropyl-1H-pyrazol-4-yl)phenyl)((trans-4-(4-methoxy-3-methylphenyl)cyclohexyl)meth-yl)carbamoyl)cyclohexyl)carbamate], the EC50 was no more than 50 nM.
The result for `COc1ccc([C@H]2CC[C@H](CN(c3cc(-c4cnc(C5CC5)s4)ccn3)C(=O)[C@H]3CC[C@H](OC(=O)N4CCN(C)CC4)CC3)CC2)cc1C` [Compound 2.27, trans-4-((4-(2-Cyclopropylthiazol-5-yl)pyridin-2-yl)(((trans)-4-(4-methoxy-3-methylphenyl)cyclohexyl)methyl)carbamoyl)cyclohexyl 4-methylpiperazine-1-carboxylate] reads no more than 50 nM; that for `COc1ccc(C23CCC(CN(c4cc(-c5cnc(C(C)C)s5)ccn4)C(=O)[C@H]4CC[C@H](OC(=O)NCCC(C)(C)O)CC4)(CC2)CC3)cc1C` [Compound 4.39, 4-((4-(2-Isopropylthiazol-5-yl)pyridin-2-yl)((4-(4-methoxy-3-methylphenyl)bicyclo[2.2.2]octan-1-yl)methyl)carbamoyl)(trans-cyclohexyl) (3-hydroxy-3-methylbutyl)carbamate], no more than 50 nM.
